Experimental data from US5281604A, “Angiotensin II receptor blocking 2,3,6-substituted quinazolinones” (American Cyanamid Company, priority 1993, dated 1994).
Several values for one entry are separate records, joined by “and”; a condition that tells them apart may be missing. Identical values can stand only once.

System: ANGIOTENSIN II (AII) VASOPRESSOR RESPONSE
Assay: AII Challenge: blockade of the angiotensin II vasopressor response in conscious spontaneously hypertensive rats
Assay type: in vivo, rat (Male Okamoto-Aoki SHR)
Conditions: 3 mg/kg i.v.
From the text: By administering a compound of this invention to a rat, and then challenging with angiotensin II, a blockage of the vasopressor response is realized.
Conscious Male Okamoto-Aoki SHR, 16-20 weeks old, weighing approximately 330 g are purchased from Charles River Labs (Wilmington, Mass.). Conscious rats are restrained in a supine position with elastic tape. The area at the base of the tail is locally anesthetized by subcutaneous infiltration with 2% procaine. The ventral caudal artery and vein are isolated, and a cannula made of polyethylene (PE) 10-20 tubing (fused together by heat) is passed into the lower abdominal aorta and vena cava, respectively. The cannula is secured, heparinized (1,000 I.U./ml), sealed and the wound is closed. The animals are placed in plastic restraining cages in an upright position. The cannula is attached to a Statham P23Db pressure transducer, and pulsatile blood pressure is recorded to 10-15 minutes with a Gould Brush recorder. (Chan et al., (Drug Development Res., 18:75-94, 1989).
Angiotensin II (human sequence, Sigma Chem. Co., St. Louis, Mo.) of 0.05 and 0.1 ug/kg i.v. is injected into all rats (predosing response). Then a test compound, vehicle or a known angiotensin II antagonist is administered i.v., i.p. or orally to each set of rats. The two doses of angiotensin II are given to each rat again at 30, 60, 90, 120, 180, 240 and 300 minutes post dosing the compound or vehicle. The vasopressor response of angiotensin II is measured for the increase in systolic blood pressure in mmHg. The percentage of antagonism or blockade of the vasopressor response of angiotensin II by a compound is calculated using the vasopressor response (increase in systolic blood pressure) of angiotensin II of each rat predosing the compound as 100%. A compound is considered active if at 30 mg/kg i.v. it antagonized at least 50% of the response.

[1] = AII 0.05 mcg/kg IV, 30 min post dose
[2] = AII 0.05 mcg/kg IV, 60 min post dose
[3] = AII 0.05 mcg/kg IV, 90 min post dose
[4] = AII 0.05 mcg/kg IV, 120 min post dose
[5] = AII 0.05 mcg/kg IV, 180 min post dose
[6] = AII 0.05 mcg/kg IV, 240 min post dose
[7] = AII 0.05 mcg/kg IV, 300 min post dose
[8] = AII 0.1 mcg/kg IV, 30 min post dose
[9] = AII 0.1 mcg/kg IV, 60 min post dose
[10] = AII 0.1 mcg/kg IV, 90 min post dose
[11] = AII 0.1 mcg/kg IV, 120 min post dose
[12] = AII 0.1 mcg/kg IV, 180 min post dose
[13] = AII 0.1 mcg/kg IV, 240 min post dose
[14] = AII 0.1 mcg/kg IV, 300 min post dose

## CCCCc1nc2ccc(C3CC4C(O3)ON3C4CCC3(C)C)cc2c(=O)n1Cc1ccc(-c2ccccc2-c2nnn[nH]2)cc1 (stereo not shown) [Example 14]
[1]
  % Inhibition: 79%
  Average Change: 7.5 mmHg
  Control Before AII (single rat): 225 mmHg and 240 mmHg
  Response After AII (single rat): 225 mmHg and 250 mmHg
  Response Change (single rat): 0 mmHg and 15 mmHg
[2]
  % Inhibition: 64%
  Average Change: 12.5 mmHg
  Control Before AII (single rat): 225 mmHg and 240 mmHg
  Response After AII (single rat): 235 mmHg and 255 mmHg
  Response Change (single rat): 10 mmHg and 15 mmHg
[3]
  % Inhibition: 74%
  Average Change: 9 mmHg
  Control Before AII (single rat): 225 mmHg and 237 mmHg
  Response After AII (single rat): 235 mmHg and 245 mmHg
  Response Change (single rat): 10 mmHg and 8 mmHg
[4]
  % Inhibition: 76%
  Average Change: 8.5 mmHg
  Control Before AII (single rat): 210 mmHg and 230 mmHg
  Response After AII (single rat): 215 mmHg and 242 mmHg
  Response Change (single rat): 5 mmHg and 12 mmHg
[5]
  % Inhibition: 76%
  Average Change: 8.5 mmHg
  Control Before AII (single rat): 215 mmHg and 230 mmHg
  Response After AII (single rat): 225 mmHg and 237 mmHg
  Response Change (single rat): 10 mmHg and 7 mmHg
[6]
  % Inhibition: 71%
  Average Change: 10 mmHg
  Control Before AII (single rat): 205 mmHg and 230 mmHg
  Response After AII (single rat): 215 mmHg and 240 mmHg
  Response Change (single rat): 10 mmHg
[7]
  % Inhibition: 74%
  Average Change: 9 mmHg
  Control Before AII (single rat): 220 mmHg and 235 mmHg
  Response After AII (single rat): 228 mmHg and 245 mmHg
  Response Change (single rat): 8 mmHg and 10 mmHg
[8]
  % Inhibition: 56%
  Average Change: 17.5 mmHg
  Control Before AII (single rat): 230 mmHg and 245 mmHg
  Response After AII (single rat): 240 mmHg and 270 mmHg
  Response Change (single rat): 10 mmHg and 25 mmHg
[9]
  % Inhibition: 56%
  Average Change: 17.5 mmHg
  Control Before AII (single rat): 215 mmHg and 245 mmHg
  Response After AII (single rat): 235 mmHg and 260 mmHg
  Response Change (single rat): 20 mmHg and 15 mmHg
[10]
  % Inhibition: 60%
  Average Change: 16 mmHg
  Control Before AII (single rat): 220 mmHg and 240 mmHg
  Response After AII (single rat): 235 mmHg and 257 mmHg
  Response Change (single rat): 15 mmHg and 17 mmHg
[11]
  % Inhibition: 63%
  Average Change: 15 mmHg
  Control Before AII (single rat): 215 mmHg and 230 mmHg
  Response After AII (single rat): 230 mmHg and 245 mmHg
  Response Change (single rat): 15 mmHg
[12]
  % Inhibition: 69%
  Average Change: 12.5 mmHg
  Control Before AII (single rat): 215 mmHg and 230 mmHg
  Response After AII (single rat): 225 mmHg and 245 mmHg
  Response Change (single rat): 10 mmHg and 15 mmHg
[13]
  % Inhibition: 56%
  Average Change: 17.5 mmHg
  Control Before AII (single rat): 215 mmHg and 225 mmHg
  Response After AII (single rat): 230 mmHg and 245 mmHg
  Response Change (single rat): 15 mmHg and 20 mmHg
[14]
  % Inhibition: 46%
  Average Change: 21.5 mmHg
  Control Before AII (single rat): 215 mmHg and 235 mmHg
  Response After AII (single rat): 233 mmHg and 260 mmHg
  Response Change (single rat): 18 mmHg and 25 mmHg
